Reference: patent publication US20120245137A1 (Zalicus Pharmaceuticals Ltd., priority 2009, published 2012)
Like-named read-outs stand apart in the source and are kept apart here.

Key:
Type in all cases: cell-based
CAv1.2 = CAv1.2 (Homo sapiens, UniProt Q13936); assay: FLIPR data, CAv1.2 channel blocking (Table 6); conditions: for CAv1.2 IC50 Ratio closed/inact.: ratio closed/inactivated IC50
T-type calcium channel [1] = biological target: T-type calcium channel (Homo sapiens, UniProt O95180); assay: T-type channel blocking, FLIPR data (Table 6); conditions: for CAv3.2 IC50 Ratio closed/inact.: CAv3.2, ratio closed/inactivated IC50
Excerpt: (§1) Another method, high-throughput spectrophotometric assay, utilizes loading of the cell lines with a fluorescent dye sensitive to intracellular calcium concentration and subsequent examination of the effects of compounds on the ability of depolarization by potassium chloride or other means to alter intracellular calcium levels.

T-type calcium channel [2] = biological target: T-type calcium channel (Homo sapiens, UniProt O43497); assay: T-type channel blocking, FLIPR data (Table 6); conditions: CAv3.1
Excerpt: as §1

Human Cav 2.2 channels = Human Cav 2.2 channels (Homo sapiens, UniProt Q00975); assay: Fluorescent assay for CaV2.2 channels using potassium depolarization (VIPR/FLIPR); conditions: FLIPR data; for CAv2.2 IC50 Ratio closed/inact.: ratio closed/inactivated IC50
Method in brief: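 Fluo-4 calcium fluorescence (480/535 nm) was recorded on VIPR or FLIPR after depolarization to 70 mM final potassium. Before this, cells were preincubated 30 min at 25 °C with compound in 4–30 mM potassium, so that state-dependent block could be assessed; the cells were HEK293 coexpressing Cav2.2, α2δ, β and Kir2.3.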

[3] = closed state, read-out: CAv1.2 IC50 Closed
[4] = inactivated state, read-out: CAv1.2 IC50 Inact.
[5] = CAv3.2, closed state, read-out: CAv3.2 IC50 Closed
[6] = CAv3.2, inactivated state, read-out: CAv3.2 IC50 Inact.
[7] = closed state, read-out: CAv2.2 IC50 Closed
[8] = inactivated state, read-out: CAv2.2 IC50 Inact.

Sequence of CAv1.2 (Q13936 whole entry): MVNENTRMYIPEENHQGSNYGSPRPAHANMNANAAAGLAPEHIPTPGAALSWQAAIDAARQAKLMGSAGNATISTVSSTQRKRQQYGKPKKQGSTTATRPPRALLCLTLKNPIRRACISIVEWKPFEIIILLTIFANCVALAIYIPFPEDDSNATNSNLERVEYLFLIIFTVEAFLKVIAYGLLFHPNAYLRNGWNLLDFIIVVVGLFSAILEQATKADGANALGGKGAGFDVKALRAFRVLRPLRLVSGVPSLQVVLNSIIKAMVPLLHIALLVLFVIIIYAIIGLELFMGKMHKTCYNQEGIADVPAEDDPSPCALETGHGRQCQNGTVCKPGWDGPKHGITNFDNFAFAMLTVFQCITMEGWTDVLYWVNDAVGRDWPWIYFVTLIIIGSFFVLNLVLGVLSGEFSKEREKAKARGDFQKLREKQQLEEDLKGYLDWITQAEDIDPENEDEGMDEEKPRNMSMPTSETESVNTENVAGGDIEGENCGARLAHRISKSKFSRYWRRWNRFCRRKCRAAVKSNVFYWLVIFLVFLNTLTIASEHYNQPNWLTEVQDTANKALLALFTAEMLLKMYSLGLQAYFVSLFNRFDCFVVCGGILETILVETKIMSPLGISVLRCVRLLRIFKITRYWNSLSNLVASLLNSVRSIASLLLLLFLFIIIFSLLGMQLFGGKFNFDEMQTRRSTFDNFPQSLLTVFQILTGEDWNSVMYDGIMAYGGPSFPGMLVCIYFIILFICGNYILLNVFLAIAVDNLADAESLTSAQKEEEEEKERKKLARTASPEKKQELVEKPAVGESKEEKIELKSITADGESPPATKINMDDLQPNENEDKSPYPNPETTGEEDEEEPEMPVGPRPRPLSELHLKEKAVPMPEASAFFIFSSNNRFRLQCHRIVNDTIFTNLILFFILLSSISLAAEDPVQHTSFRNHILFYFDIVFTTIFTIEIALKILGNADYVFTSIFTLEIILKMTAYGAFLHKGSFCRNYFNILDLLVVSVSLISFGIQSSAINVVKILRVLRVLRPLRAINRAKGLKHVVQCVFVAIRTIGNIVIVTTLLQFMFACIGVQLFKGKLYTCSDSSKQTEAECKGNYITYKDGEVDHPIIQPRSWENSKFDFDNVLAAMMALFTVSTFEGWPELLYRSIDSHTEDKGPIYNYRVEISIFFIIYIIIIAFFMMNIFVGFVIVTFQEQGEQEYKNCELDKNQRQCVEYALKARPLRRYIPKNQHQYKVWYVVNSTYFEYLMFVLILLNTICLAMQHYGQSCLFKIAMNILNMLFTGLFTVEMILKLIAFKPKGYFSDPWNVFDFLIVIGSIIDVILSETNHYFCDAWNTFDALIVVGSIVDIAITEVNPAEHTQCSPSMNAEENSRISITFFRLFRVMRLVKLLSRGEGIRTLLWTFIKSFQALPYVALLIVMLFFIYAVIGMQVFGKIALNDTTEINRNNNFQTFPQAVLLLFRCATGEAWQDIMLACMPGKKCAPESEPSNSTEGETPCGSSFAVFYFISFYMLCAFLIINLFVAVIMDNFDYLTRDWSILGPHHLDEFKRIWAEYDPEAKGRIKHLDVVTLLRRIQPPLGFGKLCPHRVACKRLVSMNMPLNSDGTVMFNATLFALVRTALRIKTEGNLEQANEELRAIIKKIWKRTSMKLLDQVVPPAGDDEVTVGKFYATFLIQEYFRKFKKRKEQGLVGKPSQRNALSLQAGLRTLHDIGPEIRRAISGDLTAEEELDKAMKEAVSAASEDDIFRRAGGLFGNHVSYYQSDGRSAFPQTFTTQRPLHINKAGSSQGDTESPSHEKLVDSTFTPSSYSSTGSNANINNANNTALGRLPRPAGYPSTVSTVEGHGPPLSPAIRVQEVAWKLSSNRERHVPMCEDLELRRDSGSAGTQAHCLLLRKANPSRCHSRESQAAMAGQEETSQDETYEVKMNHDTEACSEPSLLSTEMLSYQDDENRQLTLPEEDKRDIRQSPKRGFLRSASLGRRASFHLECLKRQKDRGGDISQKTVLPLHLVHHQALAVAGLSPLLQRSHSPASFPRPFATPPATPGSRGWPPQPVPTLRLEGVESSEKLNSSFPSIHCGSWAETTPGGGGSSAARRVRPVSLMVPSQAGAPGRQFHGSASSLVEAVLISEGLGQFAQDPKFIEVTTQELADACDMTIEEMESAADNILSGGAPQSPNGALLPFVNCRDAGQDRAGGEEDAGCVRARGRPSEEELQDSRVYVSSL
Sequence of CAv1.2 (P54289 25-1103 partner): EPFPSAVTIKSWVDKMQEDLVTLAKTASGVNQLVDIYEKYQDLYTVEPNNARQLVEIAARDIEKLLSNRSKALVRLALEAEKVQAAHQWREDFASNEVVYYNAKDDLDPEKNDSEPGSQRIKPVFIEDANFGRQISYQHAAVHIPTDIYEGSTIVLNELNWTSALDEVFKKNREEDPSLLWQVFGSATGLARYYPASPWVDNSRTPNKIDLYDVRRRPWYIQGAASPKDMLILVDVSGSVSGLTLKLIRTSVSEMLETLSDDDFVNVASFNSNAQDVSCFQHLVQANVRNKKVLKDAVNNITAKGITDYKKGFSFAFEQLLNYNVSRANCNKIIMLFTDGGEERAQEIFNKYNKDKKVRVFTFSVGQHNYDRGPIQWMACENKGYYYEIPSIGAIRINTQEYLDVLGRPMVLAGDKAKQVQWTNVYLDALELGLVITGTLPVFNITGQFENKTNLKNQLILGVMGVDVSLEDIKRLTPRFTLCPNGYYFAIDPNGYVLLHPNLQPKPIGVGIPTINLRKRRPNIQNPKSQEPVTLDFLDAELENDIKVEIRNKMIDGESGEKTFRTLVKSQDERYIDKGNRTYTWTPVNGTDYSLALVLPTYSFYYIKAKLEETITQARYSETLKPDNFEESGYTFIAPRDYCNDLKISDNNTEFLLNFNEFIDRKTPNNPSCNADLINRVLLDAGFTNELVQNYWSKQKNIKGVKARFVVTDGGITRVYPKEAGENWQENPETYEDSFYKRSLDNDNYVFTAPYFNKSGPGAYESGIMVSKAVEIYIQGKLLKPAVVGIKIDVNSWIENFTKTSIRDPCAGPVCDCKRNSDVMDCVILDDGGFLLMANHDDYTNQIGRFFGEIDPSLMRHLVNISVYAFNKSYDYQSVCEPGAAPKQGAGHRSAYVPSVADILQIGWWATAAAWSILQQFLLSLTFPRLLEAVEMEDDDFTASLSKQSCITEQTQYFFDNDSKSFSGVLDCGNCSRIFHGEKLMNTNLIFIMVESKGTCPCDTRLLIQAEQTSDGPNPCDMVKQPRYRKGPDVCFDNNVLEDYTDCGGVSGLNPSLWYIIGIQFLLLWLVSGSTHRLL
Sequence of CAv1.2 (Q08289 whole entry partner): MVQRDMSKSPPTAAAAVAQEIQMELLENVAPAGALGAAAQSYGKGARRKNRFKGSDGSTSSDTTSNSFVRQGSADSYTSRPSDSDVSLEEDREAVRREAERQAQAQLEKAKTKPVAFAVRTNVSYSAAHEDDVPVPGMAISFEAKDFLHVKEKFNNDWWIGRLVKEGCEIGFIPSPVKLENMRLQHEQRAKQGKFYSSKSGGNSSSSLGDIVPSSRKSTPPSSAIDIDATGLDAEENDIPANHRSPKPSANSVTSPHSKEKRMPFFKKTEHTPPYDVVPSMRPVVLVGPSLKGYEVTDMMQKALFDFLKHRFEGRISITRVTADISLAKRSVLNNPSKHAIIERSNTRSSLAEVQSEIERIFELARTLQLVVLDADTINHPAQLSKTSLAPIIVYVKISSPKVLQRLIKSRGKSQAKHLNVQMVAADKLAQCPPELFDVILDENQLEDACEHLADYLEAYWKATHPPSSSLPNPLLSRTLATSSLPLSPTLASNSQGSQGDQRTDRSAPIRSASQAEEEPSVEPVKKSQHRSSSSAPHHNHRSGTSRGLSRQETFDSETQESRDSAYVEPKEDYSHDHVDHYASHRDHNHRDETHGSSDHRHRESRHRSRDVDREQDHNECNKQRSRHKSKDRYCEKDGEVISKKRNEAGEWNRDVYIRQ

Row | Compound | IC50 (CAv1.2; [3]) | IC50 (CAv1.2; [4]) | CAv1.2 IC50 Ratio closed/inact. (CAv1.2) | IC50 (T-type calcium channel [1]; [5]) | IC50 (T-type calcium channel [1]; [6]) | CAv3.2 IC50 Ratio closed/inact. (T-type calcium channel [1]) | IC50 (T-type calcium channel [2]) | IC50 (Human Cav 2.2 channels; [7]) | IC50 (Human Cav 2.2 channels; [8]) | CAv2.2 IC50 Ratio closed/inact. (Human Cav 2.2 channels)
1 | CC(C)([C@H]1C[C@H](NC(=O)c2ccnc(C(F)(F)F)n2)C1)S(=O)(=O)c1cccc(OC(F)(F)F)c1 [Compound 635] | ≥ 10 µM | 7.63 µM | 1.3 | 7.63 µM | 7.84 µM | 1 | 6.96 µM | 2 µM | 0.27 µM | 7.4
2 | CC(C)([C@H]1C[C@H](NC(=O)c2ccc(C(F)(F)F)cc2S(C)(=O)=O)C1)S(=O)(=O)c1cccc(OC(F)(F)F)c1 [Compound 636] | ≥ 10 µM | 5.24 µM | 1.9 | 4.22 µM | 5.44 µM | 0.8 | 9.97 µM | 10 µM | 0.38 µM | 26.3
3 | CC(C)([C@H]1C[C@H](NC(=O)c2ncc(C(F)(F)F)cc2S(C)(=O)=O)C1)S(=O)(=O)c1cccc(OC(F)(F)F)c1 [Compound 637] | – | ≥ 10 µM | – | ≥ 10 µM | 10 µM | 1 | ≥ 10 µM | 10 µM | 0.58 µM | 17.2
4 | CC(C)S(=O)(=O)c1cc(C(F)(F)F)cnc1C(=O)N[C@H]1C[C@H](C(C)(C)S(=O)(=O)c2cccc(OC(F)(F)F)c2)C1 [Compound 638] | ≥ 10 µM | 6.11 µM | 1.6 | 5.49 µM | 6.38 µM | 0.9 | 4.24 µM | 6.79 µM | 0.21 µM | 32.3
5 | CC(C)([C@H]1C[C@@H](NC(=O)c2cc(C(F)(F)F)n[nH]2)C1)S(=O)(=O)c1cccc(OC(F)(F)F)c1 [Compound 639] | 9.31 µM | 3.4 µM | 2.7 | 2.58 µM | 2.55 µM | 1 | 2.28 µM | 6.16 µM | 0.87 µM | 7.1
6 | CC(C)([C@H]1C[C@@H](NC(=O)c2ccc(Cl)c(F)c2)C1)S(=O)(=O)c1cccc(OC(F)(F)F)c1 [Compound 640] | 4.9 µM | 1.43 µM | 3.4 | 0.7 µM | 0.92 µM | 0.8 | 1.26 µM | 2.49 µM | 0.4 µM | 6.2
7 | CC(C)([C@H]1C[C@@H](NC(=O)c2ccc(F)c(Cl)c2)C1)S(=O)(=O)c1cccc(OC(F)(F)F)c1 [Compound 641] | 4.11 µM | 0.69 µM | 6 | 0.29 µM | 0.53 µM | 0.5 | 0.77 µM | 1.67 µM | 0.25 µM | 6.7
8 | CC(C)([C@H]1C[C@@H](NC(=O)c2ccnc(C(F)(F)F)n2)C1)S(=O)(=O)c1cccc(OC(F)(F)F)c1 [Compound 642] | ≥ 10 µM | 8.43 µM | 1.2 | 9.61 µM | 2.81 µM | 3.4 | 4.07 µM | 3.09 µM | 0.63 µM | 4.9
9 | CC(C)([C@H]1C[C@@H](NC(=O)c2ccc(C(F)(F)F)cc2S(C)(=O)=O)C1)S(=O)(=O)c1cccc(OC(F)(F)F)c1 [Compound 643] | ≥ 10 µM | 9.25 µM | 1.1 | 8.38 µM | 7.16 µM | 1.2 | 4.17 µM | 10 µM | 0.47 µM | 21.3
10 | CC(C)S(=O)(=O)c1cc(C(F)(F)F)cnc1C(=O)N[C@H]1C[C@@H](C(C)(C)S(=O)(=O)c2cccc(OC(F)(F)F)c2)C1 [Compound 645] | ≥ 10 µM | 6.8 µM | 1.5 | 9.97 µM | 6.08 µM | 1.6 | 4.69 µM | 8.49 µM | 0.24 µM | 35.4
11 | CC(C)([C@H]1C[C@@H](Nc2ccnc(C(F)(F)F)n2)C1)S(=O)(=O)c1cccc(OC(F)(F)F)c1 [Compound 646] | 8 µM | 2.33 µM | 3.4 | 5.27 µM | 3.9 µM | 1.4 | 4.59 µM | 4.23 µM | 1.03 µM | 4.1
